Data: publication PMC9397467 (Virulence, 2022)
pKd: −log10 of the molar value.

Molecular target: T1, Sortase A (SrtA) (Staphylococcus aureus, UniProt Q2FV99)
T1 sequence (Q2FV99 60-206 limits assumed): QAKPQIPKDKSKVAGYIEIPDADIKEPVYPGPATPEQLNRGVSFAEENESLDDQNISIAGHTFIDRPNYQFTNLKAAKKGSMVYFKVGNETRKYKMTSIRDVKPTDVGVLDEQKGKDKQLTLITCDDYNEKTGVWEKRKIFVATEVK
Assay: fluorescence quenching
Type: binding

pKd: 4.86
SMILES: Oc1cc(O)c2cc(O)c(-c3ccc(O)c(O)c3)[o+]c2c1 [cyanidin chloride]
